Data published in patent US12522606B2, “Modified pyrrolo- and pyrazolo-pyrimidines for prostate cancer therapy” (University of Washington, priority 2020, dated 2026).
pEC50: −log10 of the molar value.

Experiments:
LNCaP95 = assay: MTT proliferation assay, LNCaP95; type: cell-based; conditions: Homo sapiens, LNCaP-95; for pEC50: Table 1, LNCaP95 (AR+ PCa), unit inferred; for inhibition at 10 µM: read-out: MTT % inhib @ 10 μM LNCaP95
Experimental: Anti-tumor activity was determined by screening a series of compounds against the castrate-resistant, androgen-receptor-positive, prostate cancer cell line LNCaP95. […] Inhibition of proliferation was determined based on the level of LNCaP95 cell growth suppression using an MTT assay (NAD(P)H-dependent cellular oxidoreductase enzymatic activities)) read at 72 and 96 hours after addition of the compounds. […] Each cell line was be tested in quadruplicate.

PC3 = assay: MTT proliferation assay, PC3; conditions: Homo sapiens; for inhibition at 10 µM: PC-3, read-out: MTT % inhib @ 10 μM PC3; for pEC50: read-out: EC50 PC3

pEC50 (LNCaP95)	pEC50 (PC3)	Compound	inhibition at 10 µM (LNCaP95)	inhibition at 10 µM (PC3)
4.92	< 4.70	COCCOc1ncnc2c1c(-c1ccc3ccccc3c1)cn2CC(C)(C)O [Example 7, 1-(4-(2-methoxyethoxy)-5-(naphthalen-2-yl)-7H-pyrrolo[2,3-d]pyrimidin-7-yl)-2-methylpropan-2-ol]	23.9%	-36.2%
5.70	< 4.70	C#CCCC1(CCOC(=O)NCCNc2ncnc3c2c(-c2ccc4cc(OCC)ccc4c2)cn3CC(C)(C)O)N=N1 [Example 10, 2-(3-(but-3-ynyl)-3H-diazirin-3-yl)ethyl 2-(5-(6-ethoxynaphthalen-2-yl)-7-(2-hydroxy-2-methylpropyl)-7H-pyrrolo[2,3-d]pyrimidin-4-ylamino)ethylcarbamate]	–	–
< 4.82	< 4.70	CNc1ncnc2c1c(-c1cccc(C(C)C)c1)nn2CC(C)(C)O [Example 16, 1-(3-(3-isopropylphenyl)-4-(methylamino)-1H-pyrazolo[3,4-d]pyrimidin-1-yl)-2-methylpropan-2-ol]	11.3%	-10.5%
5.60	5.00	CC(C)(O)Cn1cc(-c2ccc3cc(OC4CC4)ccc3c2)c2c(NC3CC3)ncnc21 [Example 17, 1-(5-(6-cyclopropoxynaphthalen-2-yl)-4-(cyclopropylamino)-7H-pyrrolo[2,3-d]pyrimidin-7-yl)-2-methylpropan-2-ol]	–	–
5.30	< 4.70	CNc1ncnc2c1c(-c1cccc(-c3ccccc3)c1)nn2CC(C)(C)O [Example 19, 1-(3-(biphenyl-3-yl)-4-(methylamino)-1H-pyrazolo[3,4-d]pyrimidin-1-yl)-2-methylpropan-2-ol]	21.3%	4.4%
< 4.70	< 4.70	CNc1ncnc2c1c(-c1ccc(-c3ccccc3)cc1F)nn2CC(C)(C)O [Example 20, 1-(3-(3-fluorobiphenyl-4-yl)-4-(methylamino)-1H-pyrazolo[3,4-d]pyrimidin-1-yl)-2-methylpropan-2-ol]	16.5%	8.3%
5.15	< 4.70	CNc1ncnc2c1c(-c1cccc(C(C)C)c1)cn2CC(C)(C)OC [Example 21, 5-(3-isopropylphenyl)-7-(2-methoxy-2-methylpropyl)-N-methyl-7H-pyrrolo[2,3-d]pyrimidin-4-amine]	-2.7%	-5.4%
< 5.00	< 4.70	CCOc1ccc2cc(-c3cn(CC(C)(C)O)c4ncnc(NCCN)c34)ccc2c1 [Example 23, 1-(4-(2-aminoethylamino)-5-(6-ethoxynaphthalen-2-yl)-7H-pyrrolo[2,3-d]pyrimidin-7-yl)-2-methylpropan-2-ol]	22.9%	27.2%
< 5.00	< 4.70	CC(C)(O)Cn1cc(-c2ccc3cc(OC4CC4)ccc3c2)c2c(NCCN)ncnc21 [Example 24, 1-(4-(2-aminoethylamino)-5-(6-cyclopropoxynaphthalen-2-yl)-7H-pyrrolo[2,3-d]pyrimidin-7-yl)-2-methylpropan-2-ol]	35.1%	6.7%
5.30	< 4.70	CCOc1ccc2cc(-c3cn(CC(C)(C)O)c4ncnc(NCCO)c34)ccc2c1 [Example 25, 1-(5-(6-ethoxynaphthalen-2-yl)-4-(2-hydroxyethylamino)-7H-pyrrolo[2,3-d]pyrimidin-7-yl)-2-methylpropan-2-ol]	34.6%	10.3%
5.30	< 4.70	CC(C)(O)Cn1cc(-c2ccc3cc(OC4CC4)ccc3c2)c2c(NCCO)ncnc21 [Example 26, 1-(5-(6-cyclopropoxynaphthalen-2-yl)-4-(2-hydroxyethylamino)-7H-pyrrolo[2,3-d]pyrimidin-7-yl)-2-methylpropan-2-ol]	40.6%	9.2%
< 5.00	< 4.70	CC(C)(O)Cn1cc(-c2ccc3cc(OC4CC4)ccc3c2)c2c(NCCOCCN)ncnc21 [Example 27, 1-(4-(2-(2-aminoethoxy)ethylamino)-5-(6-cyclopropoxynaphthalen-2-yl)-7H-pyrrolo[2,3-d]pyrimidin-7-yl)-2-methylpropan-2-ol]	8.6%	-5.2%
5.30	< 4.70	CC(C)(O)Cn1cc(-c2ccc3cc(OC4CC4)ccc3c2)c2c(NCCOCCNC(=O)OC3CC/C=C/CCC3)ncnc21 (stereo not drawn) [Example 29, trans-cyclooct-4-enyl 2-(2-(5-(6-cyclopropoxynaphthalen-2-yl)-7-(2-hydroxy-2-methylpropyl)-7H-pyrrolo[2,3-d]pyrimidin-4-ylamino)ethoxy)ethylcarbamate]	33.7%	-31%
5.40	< 4.70	CC(C)(O)Cn1cc(-c2ccc(-c3ccccc3)cc2)c2c(NCCO)ncnc21 [Example 30, 1-(5-(biphenyl-4-yl)-4-(2-hydroxyethylamino)-7H-pyrrolo[2,3d]pyrimidin-7-yl)-2-methylpropan-2-ol]	37.8%	-18.1%
5.22	< 4.70	CCc1ccc(-c2ccc(-c3cn(CC(C)(C)OC)c4ncnc(NC)c34)cc2)cc1 [Example 34, 5-(4′-ethylbiphenyl-4-yl)-7-(2-methoxy-2-methylpropyl)-N-methyl-7H-pyrrolo[2,3-d]pyrimidin-4-amine]	29.7%	9.1%
5.40	< 4.70	CCOCCNc1ncnc2c1c(-c1ccc3cc(OC4CC4)ccc3c1)cn2CC(C)(C)O [Example 35, 1-(5-(6-cyclopropoxynaphthalen-2-yl)-4-(2-ethoxyethylamino)-7H-pyrrolo[2,3-d]pyrimidin-7-yl)-2-methylpropan-2-ol]	27.1%	16.5%
5.10	< 4.70	CCOCCNc1ncnc2c1c(-c1ccc3cc(OC(C)C)ccc3c1)cn2CC(C)(C)O [Example 36, 1-(4-(2-ethoxyethylamino)-5-(6-isopropoxynaphthalen-2-yl)-7H-pyrrolo[2,3-d]pyrimidin-7-yl)-2-methylpropan-2-ol]	22%	15.7%
< 5.00	< 4.70	CCOCCNc1ncnc2c1c(-c1ccc(-c3ccccc3)cc1)cn2CC(C)(C)O [Example 37, 1-(5-(biphenyl-4-yl)-4-(2-ethoxyethylamino)-7H-pyrrolo[2,3-d]pyrimidin-7-yl)-2-methylpropan-2-ol]	8.4%	9%
5.40	< 4.70	CCOCCNc1ncnc2c1c(-c1ccc(-c3ccc(OC)cc3)cc1)cn2CC(C)(C)O [Example 38, 1-(4-(2-ethoxyethylamino)-5-(4′-methoxybiphenyl-4-yl)-7H-pyrrolo[2,3-d]pyrimidin-7-yl)-2-methylpropan-2-ol]	39.5%	11.6%
< 5.00	< 4.70	CCOCCNc1ncnc2c1c(-c1ccc(-c3ccc(CC)cc3)cc1)cn2CC(C)(C)O [Example 39, 1-(4-(2-ethoxyethylamino)-5-(4′-ethylbiphenyl-4-yl)-7H-pyrrolo[2,3-d]pyrimidin-7-yl)-2-methylpropan-2-ol]	29.2%	8.3%
< 5.00	< 4.70	CCOCCNc1ncnc2c1c(-c1ccc(-c3ccc(Br)cc3)cc1)cn2CC(C)(C)O [Example 40, 1-(5-(4′-bromobiphenyl-4-yl)-4-(2-ethoxyethylamino)-7H-pyrrolo[2,3-d]pyrimidin-7-yl)-2-methylpropan-2-ol]	-0.2%	11.1%
5.22	5.00	CCOc1ccc2cc(-c3cn(CC(C)(C)O)c4ncnc(NC5CC5)c34)ccc2c1 [Example 41, 1-(4-(cyclopropylamino)-5-(6-ethoxynaphthalen-2-yl)-7H-pyrrolo[2,3-d]pyrimidin-7-yl)-2-methylpropan-2-ol]	–	–
4.70	< 4.70	COc1ccc2cc(-c3cn(CC(C)(C)O)c4ncnc(NC5CC5)c34)ccc2c1 [Example 42, 1-(4-(cyclopropylamino)-5-(6-methoxynaphthalen-2-yl)-7H-pyrrolo[2,3-d]pyrimidin-7-yl)-2-methylpropan-2-ol]	–	–
5.00	4.70	CC(C)Nc1ncnc2c1c(-c1ccc3cc(OC4CC4)ccc3c1)cn2CC(C)(C)O [Example 43, 1-(5-(6-cyclopropoxynaphthalen-2-yl)-4-(isopropylamino)-7H-pyrrolo[2,3-d]pyrimidin-7-yl)-2-methylpropan-2-ol]	–	–
5.30	4.70	CCOc1ccc2cc(-c3cn(CC(C)(C)O)c4ncnc(NC(C)C)c34)ccc2c1 [Example 44, 1-(5-(6-ethoxynaphthalen-2-yl)-4-(isopropylamino)-7H-pyrrolo[2,3-d]pyrimidin-7-yl)-2-methylpropan-2-ol]	–	–
5.30	< 4.70	COc1ccc2cc(-c3cn(CC(C)(C)O)c4ncnc(NC(C)C)c34)ccc2c1 [Example 45, 1-(4-(isopropylamino)-5-(6-methoxynaphthalen-2-yl)-7H-pyrrolo[2,3-d]pyrimidin-7-yl)-2-methylpropan-2-ol]	–	–
